What was measured:
[1] = biological target: T1, PCSK9 and the LDL receptor (Homo sapiens, UniProt Q8NBP7); assay: CircuLex PCSK9-LDLR in vitro binding assay; conditions: His-tagged PCSK9 wild type, 8 point concentration curves, absorbance 450 nm and 540 nm, read-out: Inhibition of PCSK9-LDLR binding
T1 construct: purchased CircuLex CY-8150
Description: Compounds were assayed for their ability to inhibit the binding between PCSK9 and the LDL receptor using a CircuLex PCSK9-LDLR in vitro binding assay kit (Catalog #CY-8150. The procedure employed the reagents and buffers included in the kit as follows.
88 μL of 1× reaction buffer were placed into each well. 5 μL of test compounds in 20% DMSO were added into each well. 10 mM solutions of test compounds in DMSO were diluted by 3-fold series to give 8 point concentration curves. The compounds were then diluted 20-fold with the reaction buffer. To each well was then added 7 μL of His-tagged PCSK9 wild type solution (1000 ng/mL) into each well. The plate was then covered with a plate sealer and incubated at room temperature for 3 hours, shaking at 300 rpm on an orbital microplate shaker. The test solutions were washed 4 times with 350 μL wash buffer. 100 μL of biotinylated anti-His-tag monoclonal antibody was added to each well. The plate was covered with a plate sealer, and incubated at room temperature for 1 hour, shaking at 300 rpm. The test solutions were washed 4 times with 350 μL wash buffer. 100 μL of HRP-conjugated streptavidin was added to each well. The plate was covered with a plate sealer, and incubated at room temperature for 20 min, shaking at 300 rpm.
The test solutions were washed 4 times with 350 μL wash buffer. 100 μL of substrate reagent were added into each well. The plate was covered with a plate sealer, and incubated at room temperature for 15 min, shaking at 300 rpm. Finally, 100 μL of the stop solution was added to each well in the same order as the previously added substrate reagent. Absorbance was measured at 450 nm and 540 nm and IC50 curves were plotted.

PCSK9-D374Y = biological target: T2, PCSK9-D374Y (Homo sapiens, UniProt Q8NBP7, D374Y); assay: LDL uptake in HepG2 cells treated with PCSK9-D374Y (cell-based assay); conditions: HepG2 cells with PCSK9-D374Y (2 μg/ml), 16 hours, Bodipy FL LDL 4 hours, FIG. 3
T2 construct: host or cells: HepG2 cells (the protein is added from outside; LDLR is endogenous)
Description: Human liver cells (hepG2) express the LDL receptor, which can take up fluorescent-labeled LDL into the cell. PCSK9 binds to LDL receptor, wherein the complex is internalized and degraded in the lysosome, resulting in lowered LDL uptake in hepG2 cells. Inhibition of PCSK9 […] lowers plasma (circulating) LDL-C by increasing LDL incorporation into the cell.
The cell-based assay was conducted as follows, according to the procedure outlined in Xu and Liu, J Bioequiv Availab 2013, 5, 7. […] Human liver HepG2 cells were seeded in a 96 well plate at 2×10^5 cells/ml and incubated overnight. PCSK9-D374Y (2 μg/ml) was added, along with test compounds. The wells were incubated for 16 hours, whereupon the medium was replaced with fresh medium containing 10 μg/ml Bodipy FL LDL, and the wells were incubated for a further 4 hours. The wells were washed using warm PBS and then the LDL uptake was quantified on a fluorescent plate reader at excitation/emission wavelengths of 485 and 530 nm respectively.
FIG. 2 indicates the decrease in LDL update in HepG2 cells comparing untreated and PCSK9-D374Y gain-of-function treated cells. Test compounds were measured at their ability to increase LDL uptake at concentrations of 0.1 and 1 μM and the results shown in FIG. 3.

T1 sequence (Q8NBP7 153-692): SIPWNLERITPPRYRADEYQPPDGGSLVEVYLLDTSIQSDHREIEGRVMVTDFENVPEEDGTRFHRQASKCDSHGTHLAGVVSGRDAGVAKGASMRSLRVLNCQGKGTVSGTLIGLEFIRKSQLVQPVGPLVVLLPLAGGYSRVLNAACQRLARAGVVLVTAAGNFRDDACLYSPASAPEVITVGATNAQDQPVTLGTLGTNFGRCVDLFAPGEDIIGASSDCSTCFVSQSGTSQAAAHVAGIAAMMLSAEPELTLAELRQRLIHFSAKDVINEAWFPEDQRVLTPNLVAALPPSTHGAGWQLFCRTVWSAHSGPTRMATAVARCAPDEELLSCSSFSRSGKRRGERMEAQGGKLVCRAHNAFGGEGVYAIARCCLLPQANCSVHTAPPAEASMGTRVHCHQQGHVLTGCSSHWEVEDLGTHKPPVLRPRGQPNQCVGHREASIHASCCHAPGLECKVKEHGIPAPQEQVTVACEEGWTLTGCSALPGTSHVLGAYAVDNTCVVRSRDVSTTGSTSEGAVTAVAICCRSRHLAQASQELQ
T1 sequence (Q8NBP7 31-152 partner limits assumed): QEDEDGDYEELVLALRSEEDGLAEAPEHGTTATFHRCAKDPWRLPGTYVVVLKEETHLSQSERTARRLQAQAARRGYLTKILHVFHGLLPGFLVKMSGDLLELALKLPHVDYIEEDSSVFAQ
T2 sequence (Q8NBP7 153-692 D374Y): as the sequence (Q8NBP7 153-692) above, with D222Y counted along it
T2 sequence (Q8NBP7 31-152 partner limits assumed): as the sequence (Q8NBP7 31-152 partner limits assumed) above

Row | SMILES | IC50 [1] | increase of LDL uptake (PCSK9-D374Y; 0.1 μM compound) | increase of LDL uptake (PCSK9-D374Y; 1 μM compound)
1 | Cc1cn(-c2cc(NC(=O)c3ccc(C)c(Oc4cccc5ccncc45)c3)cc(N3CCN(C)CC3)c2)cn1 [Example 27, 3-(isoquinolin-8-yloxy)-4-methyl-N-(3-(4-methyl-1H-imidazol-1-yl)-5-(4-methylpiperazin-1-yl)phenyl)benzamide] | < 100 nM | Significant increases in LDL uptake equivalent to untreated cells | Significant increases in LDL uptake equivalent to untreated cells
2 | Cc1cn(-c2cc(NC(=O)c3ccc(C)c(C(=O)c4cccc(C#N)c4)c3)cc(N3CCN(C)CC3)c2)cn1 [Example 28, 3-(3-cyanobenzoyl)-4-methyl-N-(3-(4-methyl-1H-imidazol-1-yl)-5-(4-methylpiperazin-1-yl)phenyl)benzamide] | 1000 to 10000 nM |  | 
3 | Cc1cc(-c2cc(NC(=O)c3ccc(C)c(Nc4nccc(-c5ccc(F)cc5)n4)c3)cc(N3CCN(C)CC3)c2)on1 [Example 29, 3-((4-(4-fluorophenyl)pyrimidin-2-yl)amino)-4-methyl-N-(3-(3-methylisoxazol-5-yl)-5-(4-methylpiperazin-1-yl)phenyl)benzamide] | 10000 to 100000 nM |  | 
4 | Cc1cn(-c2cc(CN3CCC[C@H](N)C3)cc(NC(=O)c3ccc(C)c(Oc4ccccc4)c3)c2)cn1 [Example 30, (S)—N-(3-((3-aminopiperidin-1-yl)methyl)-5-(4-methyl-1H-imidazol-1-yl)phenyl)-4-methyl-3-phenoxybenzamide] | 100 to 1000 nM | Significant increases in LDL uptake equivalent to untreated cells | Significant increases in LDL uptake equivalent to untreated cells
5 | Cc1ccc(C(=O)Nc2cccc(N3CCN(C)CC3)c2)cc1Nc1nccc(-c2ccc(F)cc2)n1 [Example 31, 3-((4-(4-fluorophenyl)pyrimidin-2-yl)amino)-4-methyl-N-(3-(4-methylpiperazin-1-yl)phenyl)benzamide] | 1000 to 10000 nM |  | 

Reference: patent US11897868B2, “Heterocyclic inhibitors of PCSK9” (CARDIO THERAPEUTICS PTY LTD, priority 2017, dated 2024)
